Source: patent publication US7037656B2, “Methods and compositions for identifying ligands for nuclear receptors” (priority 2000, dated 2006)

Experiments:
Assay in all cases: Yeast 6x EcRE-lacZ β-galactosidase transactivation assay
Type in all cases: cell-based
Cf EcR + Cf ΔA/B USP = biological target: T1, Cf EcR + Cf ΔA/B USP (Choristoneura fumiferana, UniProt O77240); conditions: RH 5992 10 μM, 4 hours, DMSO control 0.205
T1 construct: human ubiquitin (76 aa) (N, cleaved yes); expressed in transfected cells; host or cells: yeast (Saccharomyces cerevisiae)
Protocol: (§1) Briefly, yeast cells are cultured in 5 mL of YPD liquid medium overnight at 30° C. The cell culture was diluted 1:20 in YPD media and further grown until cell density reached an O.D of 0.6. at OD600. The cells were pelleted by centrifugation and washed with 10 mL of TE+0.1M lithium acetate. Cells are then resuspended in 10 mL TE+0.1M lithium acetate and incubated at 30° C. for 1 hour. Cells are collected and resuspended in 0.5 mL of TE+ 0.1M lithium acetate. Aliquots of cells (50 μL), were incubated for 15 minutes at 30° C. with 1–2 μg plasmid DNA in the presence of 5 μg of denatured salmon sperm DNA as DNA carrier. In the case of co-transformation, the indicated plasmids were added simultaneously. 50% polyethyleneglycol of molecular weight 4000, diluted in TE, was added to a final concentration of 35%. DMSO was added to the transformation solution simultaneously to a final concentration 3%. The samples were mixed well by vortexing and incubated for an additional 30 minutes at 30° C. The cell mixture is then heated for 15 minutes at 42° C. Cells were then collected and plated onto appropriate yeast selective media. Transformants of 4 plasmids are selected on the complete media without tryptophan, uracil, leucine and histidine.
(§2) The yeast cells grown overnight in selective liquid media at 30° C. were diluted in prewarmed liquid selective media to 0.1 at OD600 (ODculture). 100 μl of the cell culture was spiked to each well of a.96-well microtiter plate. Ligand (2 μl diluted in DMSO) was added to each well giving a final concentration of DMSO of 2%. As a control, 2 μl of DMSO were also added to additional test wells. The final concentration of the tested compounds in the media is 10 μM. The cells were incubated in the presence of ligand in a shaker at 30° C. After 4 hours of incubation, 100 μl of 2× “Z” Sarcosine-ONPG buffer (120 mM Na2HPO4, 80 mM NaH2PO4, 20 mM KCl, 2 mM MgSO4, 100 mM beta-mercaptoethanol (Sigma), pH 7.0, 0.4% lauroyl sarcosine (Sigma), 4 mg/mL ONPG (Diagnostic Chemicals limited) was added to each well and the plate was further incubated at 37° C. The 2× “Z” Sarcosine-ONPG buffer is freshly prepared or stored at −20° C. prior to use. After incubation at 37° C. for 1 hour. The reaction was stopped by adding 100 μL of quenching solution 0.5 M Na2CO3 and OD405 (ODreaction) and beta-galactosidase activity was measured in a micro plate reader (Biotek) at a wave length of 405–450 nanometers. The effect of copper on enhancement of the transactivation response mediated by the ligands tested was studied by adding CuSO4 to the media to a final concentration of 10 μM.
(§3) Using the transformation method described above, yeast were co-transformed with a reporter gene as shown in FIG. 2 and the expression vector encoding the full-length Choristoneura fumiferana ecdysone receptor, Cf EcR (FIG. 5A) in the presence or absence of the Cf EcR heterodimer partner, Cf USP (FIG. 6A). Transformed cells were incubated with DMSO alone as a control, or with a proprietary ecdysone receptor ligand (Rohm & Haas RH5992) at final concentration 10 μM for 4 hours. The samples were then assayed for β-galactosidase activity as described above. […] However, as with all systems tested, fruit fly, mosquito and spruce bud worm, co-expression of CfEcR with CfUSP did give rise to constitutive transactivation of reporter gene. […] However, deletion of the A/B domain of the CfUSP abolished this constitutive transactivation of the reporter gene. Thus, in the spruce bud worm system, constitutive transcription is not observed when CfEcR/Cf ΔAB USP or Cf ΔAB EcR/Cf ΔAB USP are co-expressed. […] Ligand dependent transactivation was observed only in the presence of the co-activator GRIP1. We also observed stronger ligand dependent activity for the Cf ΔA/B EcR+Cf ΔA/B USP+GRIP1 combination than the CfEcR+CfΔA/B USP+GRIP1 combination.

Cf EcR + CfUSP = biological target: T2, Cf EcR + CfUSP (Choristoneura fumiferana, UniProt O77240); conditions: RH 5992 10 μM, 4 hours, DMSO control 2.734
T2 construct: human ubiquitin (76 aa) (N, cleaved yes); expressed in transfected cells; host or cells: yeast (Saccharomyces cerevisiae)
Protocol: as §1, §2, §3

Cf USP = biological target: T3, Cf USP (Choristoneura fumiferana, UniProt O76202); conditions: RH 5992 10 μM, 4 hours, DMSO control 0.233
T3 construct: human ubiquitin (76 aa) (N, cleaved yes); expressed in transfected cells; host or cells: yeast (Saccharomyces cerevisiae), plasmid pRS425CfUSP, CUP1 promoter
Protocol: as §1, §2, §3

Cf ΔA/B EcR + Cf USP = biological target: T4, Cf ΔA/B EcR + Cf USP (Choristoneura fumiferana, UniProt O77240); conditions: RH 5992 10 μM, 4 hours, DMSO control 2.684
T4 construct: human ubiquitin (76 aa) (N, cleaved yes); expressed in transfected cells; host or cells: yeast (Saccharomyces cerevisiae)
Protocol: as §1, §2, §3

[1] = biological target: T5, Cf ΔA/B EcR + Cf ΔA/B USP (Choristoneura fumiferana, UniProt O77240); conditions: RH 5992 10 μM, 4 hours, DMSO control 0.209
T5 construct: human ubiquitin (76 aa) (N, cleaved yes); expressed in transfected cells; host or cells: yeast (Saccharomyces cerevisiae)
Protocol: as §1, §2, §3

Cf EcR = biological target: T6, Cf EcR (Choristoneura fumiferana, UniProt O77240); conditions: RH 5992 10 μM, 4 hours, DMSO control 0.201
T6 construct: human ubiquitin (76 aa) (N, cleaved yes); expressed in transfected cells; host or cells: yeast (Saccharomyces cerevisiae), plasmid YEpCfEcR, CUP1 promoter
Protocol: as §1, §2, §3

[2] = biological target: T7, Cf EcR + Cf ΔA/B USP + GRIP1 (Choristoneura fumiferana, UniProt O77240)
T7 construct: human ubiquitin (76 aa) (N, cleaved yes); expressed in transfected cells; host or cells: yeast (Saccharomyces cerevisiae); GRIP1 from pRS423-ADH1GRIP812
Protocol: as §1, §2, §3

T7 sequence (O77240 1-513, stated change not applied): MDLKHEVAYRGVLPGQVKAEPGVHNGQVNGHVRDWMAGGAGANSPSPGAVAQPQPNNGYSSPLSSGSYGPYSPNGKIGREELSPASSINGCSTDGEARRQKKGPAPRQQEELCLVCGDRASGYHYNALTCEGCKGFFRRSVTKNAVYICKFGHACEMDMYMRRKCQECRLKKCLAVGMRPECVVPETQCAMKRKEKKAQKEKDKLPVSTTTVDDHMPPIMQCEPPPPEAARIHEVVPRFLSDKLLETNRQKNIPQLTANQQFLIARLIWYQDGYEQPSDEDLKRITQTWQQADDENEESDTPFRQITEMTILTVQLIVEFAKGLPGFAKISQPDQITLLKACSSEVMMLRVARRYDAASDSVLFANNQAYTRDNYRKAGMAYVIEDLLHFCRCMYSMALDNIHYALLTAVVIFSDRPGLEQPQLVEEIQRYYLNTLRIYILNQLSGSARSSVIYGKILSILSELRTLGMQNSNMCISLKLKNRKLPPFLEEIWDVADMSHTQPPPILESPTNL
T7 sequence (O76202 with tags, fused parts or gaps partner): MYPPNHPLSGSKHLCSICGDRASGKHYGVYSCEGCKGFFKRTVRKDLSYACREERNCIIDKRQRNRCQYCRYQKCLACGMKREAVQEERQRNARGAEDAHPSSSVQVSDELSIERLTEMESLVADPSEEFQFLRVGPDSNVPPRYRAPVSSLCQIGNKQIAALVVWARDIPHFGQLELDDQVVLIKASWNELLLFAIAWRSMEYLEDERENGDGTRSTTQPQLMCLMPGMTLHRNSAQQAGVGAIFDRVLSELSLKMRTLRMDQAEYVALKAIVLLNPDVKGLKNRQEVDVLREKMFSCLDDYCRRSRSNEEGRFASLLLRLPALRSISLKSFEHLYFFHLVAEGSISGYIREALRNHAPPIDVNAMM
T3 sequence (O76202 whole entry): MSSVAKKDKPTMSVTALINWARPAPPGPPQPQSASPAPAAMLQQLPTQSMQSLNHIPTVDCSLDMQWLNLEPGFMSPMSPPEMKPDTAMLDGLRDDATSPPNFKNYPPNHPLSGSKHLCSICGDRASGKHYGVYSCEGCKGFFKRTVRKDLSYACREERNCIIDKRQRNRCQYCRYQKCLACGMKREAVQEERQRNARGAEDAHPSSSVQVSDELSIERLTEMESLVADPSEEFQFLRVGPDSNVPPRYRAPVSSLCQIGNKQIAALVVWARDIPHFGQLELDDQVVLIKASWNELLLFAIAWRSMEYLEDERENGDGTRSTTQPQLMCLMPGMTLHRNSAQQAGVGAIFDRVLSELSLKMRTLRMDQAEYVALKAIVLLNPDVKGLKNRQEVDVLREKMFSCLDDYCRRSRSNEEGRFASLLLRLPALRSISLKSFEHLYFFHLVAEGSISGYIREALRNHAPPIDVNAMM
T5 sequence (O77240 entry or part of it, stated change not applied): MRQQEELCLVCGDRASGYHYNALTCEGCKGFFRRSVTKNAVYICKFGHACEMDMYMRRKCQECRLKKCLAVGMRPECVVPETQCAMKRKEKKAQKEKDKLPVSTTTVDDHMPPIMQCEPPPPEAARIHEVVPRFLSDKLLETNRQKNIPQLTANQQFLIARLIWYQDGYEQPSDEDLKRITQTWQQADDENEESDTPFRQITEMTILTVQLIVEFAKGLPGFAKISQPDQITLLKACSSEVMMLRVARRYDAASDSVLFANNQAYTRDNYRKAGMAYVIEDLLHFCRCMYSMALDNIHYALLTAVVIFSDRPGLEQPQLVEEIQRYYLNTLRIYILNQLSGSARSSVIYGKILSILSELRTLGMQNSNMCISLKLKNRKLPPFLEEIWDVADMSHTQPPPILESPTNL
T5 sequence (O76202 with tags, fused parts or gaps partner): as the sequence (O76202 with tags, fused parts or gaps partner) above
T4 sequence (O77240 entry or part of it, stated change not applied): as the sequence (O77240 entry or part of it, stated change not applied) above
T4 sequence (O76202 whole entry partner): as the sequence (O76202 whole entry) above
T1 sequence (O77240 1-513, stated change not applied): as the sequence (O77240 1-513, stated change not applied) above
T1 sequence (O76202 with tags, fused parts or gaps partner): as the sequence (O76202 with tags, fused parts or gaps partner) above
T6 sequence (O77240 1-513): as the sequence (O77240 1-513, stated change not applied) above
T2 sequence (O77240 1-513): as the sequence (O77240 1-513, stated change not applied) above
T2 sequence (O76202 whole entry partner): as the sequence (O76202 whole entry) above

CCc1ccc(C(=O)NN(C(=O)c2cc(C)cc(C)c2)C(C)(C)C)cc1 [RH 5992, tebufenozide]
β-galactosidase activity (Cf EcR + Cf ΔA/B USP): 0.241 | β-galactosidase activity (Cf EcR + CfUSP): 3.000 | β-galactosidase activity (Cf USP): 0.230 | β-galactosidase activity (Cf ΔA/B EcR + Cf USP): 3.000 | β-galactosidase activity [1]: 0.234 | β-galactosidase activity (Cf EcR): 0.175 | β-galactosidase activity ([2]; RH 5992 10 μM, 4 hours, yeast, Cf EcR + Cf ΔA/B USP + GRIP1, DMSO control 0.223): 0.492 | response of the complex to the ligand (in words) ([2]; complex CfEcR:CfΔA/B USP:GRIP1): responsive, but not very sensitive
